Data on 18 molecules can be found in patent US9796733B2, “Imidazo-pyrazine derivatives useful as soluble guanylate cyclase activators” (Merck Sharp & Dohme Corp., priority 2014, dated 2017).

The target of the test is T1, sGC α1/β1 heterodimer (Homo sapiens, UniProt Q02108+Q02153).
T1 construct: expressed in transfected cells; host or cells: CHO-K1 (clone #7, CHO-K1/sGC)
T1 sequence (Q02108 1-690): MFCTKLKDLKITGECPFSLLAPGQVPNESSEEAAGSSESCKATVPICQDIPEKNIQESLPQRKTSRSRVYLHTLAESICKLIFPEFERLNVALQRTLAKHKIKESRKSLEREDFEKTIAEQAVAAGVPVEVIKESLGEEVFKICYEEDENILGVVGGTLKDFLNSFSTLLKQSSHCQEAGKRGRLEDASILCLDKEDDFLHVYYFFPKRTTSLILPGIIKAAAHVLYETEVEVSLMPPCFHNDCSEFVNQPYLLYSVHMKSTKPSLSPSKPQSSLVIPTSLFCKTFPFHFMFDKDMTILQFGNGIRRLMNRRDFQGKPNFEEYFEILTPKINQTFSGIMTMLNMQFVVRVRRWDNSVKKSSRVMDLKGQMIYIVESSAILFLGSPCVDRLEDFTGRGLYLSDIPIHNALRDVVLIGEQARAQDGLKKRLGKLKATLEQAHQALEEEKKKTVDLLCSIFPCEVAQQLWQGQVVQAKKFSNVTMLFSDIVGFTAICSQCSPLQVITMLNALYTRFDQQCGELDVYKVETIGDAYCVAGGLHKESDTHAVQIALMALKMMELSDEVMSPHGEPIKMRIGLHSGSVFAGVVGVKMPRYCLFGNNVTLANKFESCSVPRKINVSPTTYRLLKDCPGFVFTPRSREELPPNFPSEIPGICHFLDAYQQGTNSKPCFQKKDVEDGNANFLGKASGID
T1 sequence (Q02153 1-619): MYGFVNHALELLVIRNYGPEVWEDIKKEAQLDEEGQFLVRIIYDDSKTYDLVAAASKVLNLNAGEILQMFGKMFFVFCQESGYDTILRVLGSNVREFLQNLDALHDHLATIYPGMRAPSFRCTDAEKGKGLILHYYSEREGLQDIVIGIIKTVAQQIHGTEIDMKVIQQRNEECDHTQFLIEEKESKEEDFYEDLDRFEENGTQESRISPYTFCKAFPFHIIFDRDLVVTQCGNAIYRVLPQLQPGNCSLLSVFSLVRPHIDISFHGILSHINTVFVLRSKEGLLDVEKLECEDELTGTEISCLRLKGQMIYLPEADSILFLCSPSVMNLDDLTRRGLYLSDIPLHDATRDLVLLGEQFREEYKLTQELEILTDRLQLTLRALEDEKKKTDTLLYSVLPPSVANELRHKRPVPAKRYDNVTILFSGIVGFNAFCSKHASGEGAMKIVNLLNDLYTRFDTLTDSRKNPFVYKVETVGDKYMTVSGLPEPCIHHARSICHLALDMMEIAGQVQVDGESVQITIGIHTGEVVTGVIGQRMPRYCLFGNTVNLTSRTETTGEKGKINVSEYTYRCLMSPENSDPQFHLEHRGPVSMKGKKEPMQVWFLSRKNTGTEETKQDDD
Briefly: Cell-based sGC functional assay (CASA assay): cGMP generation in CHO-K1/sGC cells, HTRF detection. To be noted: for Emax: CHO-K1, percent activation relative to standard Compound A in CHO-K1/sGC cells, read-out: % Act.; for EC50: inflection point (IP) of cGMP generation in CHO-K1/sGC cells, 4P fit, activity expressed as percentage of Compound A. The essentials:
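cGMP was quantified by HTRF after 1 hr, 37° C exposure of thawed CHO-K1 cells expressing sGC α1/β1 to compound, with or without 1 μM DETA-NO. IBMX (0.5 mM) blocked cGMP breakdown, and DMSO was 2.5% final. Percent of standard Compound A's maximal cGMP was fitted (4P) for inflection point.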
(In general: TR-FRET usually uses a lanthanide donor and a delayed reading to cut background.)

Each structure is given as a SMILES string.

As a reminder, the EC50 is the concentration giving half of the maximal effect. A high value points to lower potency in that assay. As for `CC(C)Cc1nc(-c2nc(N)c3c(n2)NC(=O)C3(C)c2ccc(F)cc2)cn2ccnc12` (stereo not drawn) [Example 19A, 4-amino-5-(4-fluorophenyl)-2-(8-isobutylimidazo[1,2-a]pyrazin-6-yl)-5-methyl-5H-pyrrolo[2,3-d]pyrimidin-6(7H)-one], the Emax was 113% and the half-maximal effective concentration (EC50) was determined as 387 nM.
For `CC1(c2ccc(F)cc2)C(=O)Nc2nc(-c3cn4ccnc4c(C4CCC4)n3)nc(N)c21` (stereo not drawn) [Example 21A, 4-amino-2-(8-cyclobutylimidazo[1,2-a]pyrazin-6-yl)-5-(4-fluorophenyl)-5-methyl-5H-pyrrolo[2,3-d]pyrimidin-6(7H)-one], in that order: 95% and 197 nM.
In the same order, the values of `CC(C)Cc1nc(-c2nc(N)c3c(n2)NC(=O)C3(c2ccc(Cl)cc2)C2CC2)cn2ccnc12` (stereo not drawn) [Example 22B, 4-amino-5-(4-chlorophenyl)-5-cyclopropyl-2-(8-isobutylimidazo[1,2-a]pyrazin-6-yl)-5H-pyrrolo[2,3-d]pyrimidin-6(7H)-one] are 91% and 150 nM.
For `CC(C)Cc1nc(-c2nc(N)c3c(n2)NC(=O)C3(C)c2ccc(F)cn2)cn2ccnc12` (stereo not drawn) [Example 23B, 4-amino-5-(5-fluoropyridin-2-yl)-2-(8-isobutylimidazo[1,2-a]pyrazin-6-yl)-5-methyl-5H-pyrrolo[2,3-d]pyrimidin-6(7H)-one], in that order: 96% and 257 nM.
Consider `CCCc1nc(-c2nc(N)c3c(n2)NC(=O)C3(C)c2ccc(OC(F)(F)F)cc2)cn2ccnc12` (stereo not drawn) [Example 24A, 4-amino-5-methyl-2-(8-propylimidazo[1,2-a]pyrazin-6-yl)-5-(4-(trifluoromethoxy)phenyl)-5H-pyrrolo[2,3-d]pyrimidin-6(7H)-one], for which the Emax was 104% and the EC50 amounted to 410 nM.
As for `CC(C)Cc1nc(-c2nc(N)c3c(n2)NC(=O)C3(C)c2ccc(OC(F)(F)F)cc2)cn2ccnc12` (stereo not drawn) [Example 25A, 4-amino-2-(8-isobutylimidazo[1,2-a]pyrazin-6-yl)-5-methyl-5-(4-(trifluoromethoxy)phenyl)-5H-pyrrolo[2,3-d]pyrimidin-6(7H)-one], the Emax amounted to 87% and the midpoint of the response, the EC50, lay at 324 nM.
In the same order, the values of `CC1(c2ccc(F)cn2)C(=O)Nc2nc(-c3cn4ccnc4c(C4CCC4)n3)nc(N)c21` (stereo not drawn) [Example 27B, 4-amino-2-(8-cyclobutylimidazo[1,2-a]pyrazin-6-yl)-5-(5-fluoropyridin-2-yl)-5-methyl-5H-pyrrolo[2,3-d]pyrimidin-6(7H)-one] are 85% and 441 nM.
In the same order, the values of `CC1(c2ccc(F)cc2)C(=O)Nc2nc(-c3cn4ccnc4c(C4CC4)n3)nc(N)c21` (stereo not drawn) [Example 28A, 4-amino-2-(8-cyclopropylimidazo[1,2-a]pyrazin-6-yl)-5-(4-fluorophenyl)-5-methyl-5H-pyrrolo[2,3-d]pyrimidin-6(7H)-one] are 82% and 652 nM.
Turning to `CC1(C(=O)NC2CC2)C(=O)Nc2nc(-c3cn4ccnc4c(Cc4ccccc4F)n3)nc(N)c21` (stereo not drawn) [Example 35A, 4-amino-N-cyclopropyl-2-(8-(2-fluorobenzyl)imidazo[1,2-a]pyrazin-6-yl)-5-methyl-6-oxo-6,7-dihydro-5H-pyrrolo[2,3-d]pyrimidine-5-carboxamide], the Emax turned out to be 129% and a half-maximal response (EC50) required 16 nM.
Consider `NC(=O)C1(C2CC2)C(=O)Nc2nc(-c3cn4ccnc4c(Cc4cccc(F)c4)n3)nc(N)c21` (stereo not drawn) [Example 42B, 4-amino-5-cyclopropyl-2-(8-(3-fluorobenzyl)imidazo[1,2-a]pyrazin-6-yl)-6-oxo-6,7-dihydro-5H-pyrrolo[2,3-d]pyrimidine-5-carboxamide], for which the Emax worked out at 103% and the EC50 turned out to be 32 nM.
As for `CC1(C(=O)NC2CC2)C(=O)Nc2nc(-c3cn4cc(C(F)(F)F)nc4c(Cc4cccc(F)c4F)n3)nc(N)c21` (stereo not drawn) [Example 43A, 4-amino-N-cyclopropyl-2-(8-(2,3-difluorobenzyl)-2-(trifluoromethyl)imidazo[1,2-a]pyrazin-6-yl)-5-methyl-6-oxo-6,7-dihydro-5H-pyrrolo[2,3-d]pyrimidine-5-carboxamide], the Emax is 86% and the EC50 was 182 nM.
Take `Nc1nc(-c2cn3cc(C(F)(F)F)nc3c(Cc3cccc(F)c3)n2)nc2c1C(C(=O)NC1CC1)(C1CC1)C(=O)N2` (stereo not drawn) [Example 44B, 4-amino-N,5-dicyclopropyl-2-(8-(3-fluorobenzyl)-2-(trifluoromethyl)imidazo[1,2-a]pyrazin-6-yl)-6-oxo-6,7-dihydro-5H-pyrrolo[2,3-d]pyrimidine-5-carboxamide]: the Emax was determined as 88% and it took 286 nM to reach a half-maximal effect (EC50).
In the same order, the values of `Nc1nc(-c2cn3cc(C(F)(F)F)nc3c(Cc3ccccc3F)n2)nc2c1C(C(=O)NC1CC1)(C1CC1)C(=O)N2` (stereo not drawn) [Example 45A, 4-amino-N,5-dicyclopropyl-2-(8-(2-fluorobenzyl)-2-(trifluoromethyl)imidazo[1,2-a]pyrazin-6-yl)-6-oxo-6,7-dihydro-5H-pyrrolo[2,3-d]pyrimidine-5-carboxamide] are 86% and 668 nM.
Consider `CC1(C(=O)NC2CC2)C(=O)Nc2nc(-c3cn4cc(C(F)(F)F)nc4c(Cc4cccc(F)c4)n3)nc(N)c21` (stereo not drawn) [Example 46A, 4-amino-N-cyclopropyl-2-(8-(3-fluorobenzyl)-2-(trifluoromethyl)imidazo[1,2-a]pyrazin-6-yl)-5-methyl-6-oxo-6,7-dihydro-5H-pyrrolo[2,3-d]pyrimidine-5-carboxamide], for which the Emax worked out at 124% and it took 570 nM to reach a half-maximal effect (EC50).
In the case of `CC1(C(=O)NC2CC2)C(=O)Nc2nc(-c3cn4cc(C(F)(F)F)nc4c(Cc4ccccc4F)n3)nc(N)c21` (stereo not drawn) [Example 47B, 4-amino-N-cyclopropyl-2-(8-(2-fluorobenzyl)-2-(trifluoromethyl)imidazo[1,2-a]pyrazin-6-yl)-5-methyl-6-oxo-6,7-dihydro-5H-pyrrolo[2,3-d]pyrimidine-5-carboxamide], the Emax came out at 118% and the EC50 is 735 nM.
For `Nc1nc(-c2cn3cc(C(F)(F)F)nc3c(Cc3cccc(F)c3F)n2)nc2c1C(C(=O)NC1CC1)(C1CC1)C(=O)N2` (stereo not drawn) [Example 48B, 4-amino-N,5-dicyclopropyl-2-(8-(2,3-difluorobenzyl)-2-(trifluoromethyl)imidazo[1,2-a]pyrazin-6-yl)-6-oxo-6,7-dihydro-5H-pyrrolo[2,3-d]pyrimidine-5-carboxamide], in that order: 93% and 442 nM.
For the molecule `Nc1nc(-c2cn3cc(C(F)(F)F)nc3c(Cc3ccc(F)cc3)n2)nc2c1C(C(=O)NC1CC1)(C1CC1)C(=O)N2` (stereo not drawn) [Example 50B, 4-amino-N,5-dicyclopropyl-2-(8-(4-fluorobenzyl)-2-(trifluoromethyl)imidazo[1,2-a]pyrazin-6-yl)-6-oxo-6,7-dihydro-5H-pyrrolo[2,3-d]pyrimidine-5-carboxamide], the Emax was 86% and the response was half-maximal at 829 nM (EC50).
For `Nc1nc(-c2cn3cc(C(F)(F)F)nc3c(Cc3ccccc3)n2)nc2c1C(C(=O)NC1CC1)(C1CC1)C(=O)N2` (stereo not drawn) [Example 51A, 4-amino-2-(8-benzyl-2-(trifluoromethyl)imidazo[1,2-a]pyrazin-6-yl)-N,5-dicyclopropyl-6-oxo-6,7-dihydro-5H-pyrrolo[2,3-d]pyrimidine-5-carboxamide], in that order: 93% and 890 nM.
